Consider 16 compounds from US11572362B2, “Pyrrolo[1,2-b]pyridazine derivatives” (Gilead Sciences, Inc., priority 2018, dated 2023).

One may read the EC50 as the concentration at which the effect is half-maximal. For orientation: IC50 means the point on the concentration scale where inhibition reaches its midpoint. A lower IC50 goes with inhibition by little substance.

One experiment has as its system TNFα. In words: IRAK4 Monocyte TNFα Cell Based Assay. The following applies: Monocyte; cryopreserved human monocytes, 50 pg/ml LPS, compound 1 hour pre-treatment, 4 hours stimulation, TNFα by TR-FRET. As for the experimental part: IRAK4 Monocyte TNFα Cell Based Assay Procedure:
The cell suspension was then plated at a density of 5,000 cells/well onto black 384 well Greiner clear bottom plates. Plates were pre-spotted with test compounds and serially diluted in DMSO where 40 nL/well were delivered using the Echo 550 acoustic liquid dispenser (Labcyte®) for a final DMSO concentration of 0.1%. Plated cells were treated with compound for 1 hour at 37° C. Cells were then stimulated with 50 pg/ml of LPS (Sigma) excluding outside columns of plate used for unstimulated cell control wells. Cells were incubated for an additional 4 hours at 37° C. Cells were then spun out of the media and 5 μl of sample were taken and analyzed for total TNFα content using the TR-FRET Human TNFα detection system (CisBio). This system utilizes two labeled antibodies (cryptate and XL665) that bind to two different epitopes of the TNFα molecule and produce FRET signal proportional to the concentration of TNFα in the sample. Detection antibodies are mixed 50:50 and 5 μL were dispensed into each well. Plates were covered with clear seals and incubated at room temp overnight. The following morning plates were read using an Envision 2103 Multilabeled reader (PerkinElmer) with excitation/emission/FRET emission at 340 nm/615 nm/665 nm, respectively. Fluorescence intensities at 615 nm and 665 nm emission wavelengths were expressed as a ratio (665 nm/615 nm). Percent of control was calculated as follows: % Control=100×(RatioSample−Ratio0% Stimulation)/(Ratio100% Stimulation−Ratio0% Stimulation)
where unstimulated cells (0% stimulation) were the negative control and stimulated cells (100% stimulation) were used as the positive control.
In general terms: TR-FRET usually uses a lanthanide donor and a delayed reading to cut background.

The next experiment deals with IRAK4 (Homo sapiens (Human), UniProt Q9NWZ3). The experiment is described as follows: IRAK4 Biochemical Assay (TR-FRET/HTRF). The settings on record: IRAK4 enzyme 0.75 nM, 500 μM ATP, 2 μM STK1 peptide, 120 min. How it is done: IRAK4 Biochemical Assay Procedure:
IRAK4 enzyme (Carna Biosciences, Chuo-ku, Kobe, Japan) activity was measured by detecting phosphorylated peptide substrate formation using an antibody against the phosphorylated peptide substrate. This is a time-resolved fluorescence resonance energy transfer (TR-FRET) immunoassay, based on the STK1 KinEASE Assay (Cisbio, Bedford, Mass.). The assay was designed as a simple two-step, endpoint assay (a 5 μl enzyme reaction followed by 5 μl stop and detect Solution) performed in ProxiPlate-384 Plus plates (Perkin Elmer, Waltham, Mass.). Staurosporine, a non-selective kinase inhibitor was used as a positive control. Compounds diluted in DMSO were spotted into 384 well plates using a Labcyte® Echo 550 Liquid Handling System prior to addition of IRAK4 enzyme and peptide substrate. Reaction solutions were delivered using a Multi-Flo (Bio-Tek Instruments). The enzyme and peptide solution was incubated with compound for 15 minutes at room temp before the reaction was initiated by the addition of ATP. The standard 5 μl reaction mixture contained 500 μM ATP, 2 μM peptide (STK1 Peptide), 0.75 nM of IRAK4 in reaction buffer (50 mM HEPES, pH 7.0, 0.02% NaN3, 0.01% BSA, 0.1 mM Orthovanadate, 5 mM MgCl2, 0.025% NP-40, 1 mM DTT). After 120 min of incubation at room temperature, 5 μl of Stop and Detect Solution (1:100 Cryptate labeled anti-phosphorylated peptide antibody solution and 125 nM Tracer in a 50 mM HEPES pH 7.0 detection buffer containing sufficient EDTA) was added. The plate was then further incubated for 60 minutes at room temperature and read on Envision 2103 Multilabeled reader (PerkinElmer) with excitation/emission/FRET emission at 340 nm/615 nm/665 nm, respectively. Fluorescence intensities at 615 nm and 665 nm emission wavelengths were expressed as a ratio (665 nm/615 nm). Percentage of inhibition was calculated as below: % Inhibition=100×(RatioSample−Ratio0% Inhibition)/(Ratio100% Inhibition−Ratio0% Inhibition)
The 0% inhibition value comes from control wells lacking inhibitor. The 100% inhibition value comes from control wells containing a saturating amount of known inhibitor staurosporine.

Sequence of IRAK4 (Q9NWZ3 whole entry): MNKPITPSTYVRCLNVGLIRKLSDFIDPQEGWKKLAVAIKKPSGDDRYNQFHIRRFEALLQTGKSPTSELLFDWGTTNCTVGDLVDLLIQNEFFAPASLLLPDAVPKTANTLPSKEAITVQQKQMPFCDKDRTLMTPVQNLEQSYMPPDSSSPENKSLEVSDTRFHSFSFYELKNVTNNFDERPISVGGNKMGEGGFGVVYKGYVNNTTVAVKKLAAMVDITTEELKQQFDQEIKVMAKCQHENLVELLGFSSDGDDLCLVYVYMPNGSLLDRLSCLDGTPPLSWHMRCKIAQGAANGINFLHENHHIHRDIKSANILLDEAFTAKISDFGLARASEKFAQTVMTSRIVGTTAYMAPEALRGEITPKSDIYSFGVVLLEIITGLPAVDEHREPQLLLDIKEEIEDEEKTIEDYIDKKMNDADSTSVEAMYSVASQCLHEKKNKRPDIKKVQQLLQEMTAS

Consider `COCc1nnc([C@H]2CC[C@H](Nc3cc(-c4ccc5cc(C#N)cnn45)ncc3C(=O)NC[C@@H](F)C(C)(C)O)CC2)o1` [Compound 40, 6-(3-cyanopyrrolo[1,2-b]pyridazin-7-yl)-N-((R)-2-fluoro-3-hydroxy-3-methylbutyl)-4-(((1r,4R)-4-(5-(methoxymethyl)-1,3,4-oxadiazol-2-yl)cyclohexyl)amino)nicotinamide], for which the EC50 in the experiment with TNFα is 66 nM. In addition, half-maximal inhibition at IRAK4 (IC50) was put at 1 nM. `CC(C)(O)[C@H](F)CNC(=O)c1cnc(-c2ccc3cc(C#N)cnn23)cc1N[C@H]1CC[C@H](c2cnn(C(F)F)n2)CC1` [Compound 75, 6-(3-cyanopyrrolo[1,2-b]pyridazin-7-yl)-4-(((1r,4R)-4-(2-(difluoromethyl)-2H-1,2,3-triazol-4-yl)cyclohexyl)amino)-N-((R)-2-fluoro-3-hydroxy-3-methylbutyl)nicotinamide]: the IC50 against IRAK4 was found to be 0.875 nM. In the case of `CC(C)(O)[C@H](F)CNC(=O)c1cnc(-c2ccc3cc(C#N)cnn23)cc1NC1CCC(c2ncn(C(F)F)n2)CC1` (stereo partly drawn) [Compound 21, (R)-6-(3-cyanopyrrolo[1,2-b]pyridazin-7-yl)-4-((4-(1-(difluoromethyl)-1H-1,2,4-triazol-3-yl)cyclohexyl)amino)-N-(2-fluoro-3-hydroxy-3-methylbutyl)nicotinamide], the EC50 in the experiment on TNFα worked out at 60 nM. The IC50 against IRAK4 is 2 nM. The like results for `CC(C)(O)[C@H](F)CNC(=O)c1cnc(-c2ccc3cc(C#N)cnn23)cc1N[C@H]1CC[C@H](n2cc(C3COC3)nn2)CC1` [Compound 33, 6-(3-cyanopyrrolo[1,2-b]pyridazin-7-yl)-N-((R)-2-fluoro-3-hydroxy-3-methylbutyl)-4-(((1r,4R)-4-(4-(oxetan-3-yl)-1H-1,2,3-triazol-1-yl)cyclohexyl)amino)nicotinamide] were, in that order, 200 nM and 1 nM. For the compound `CC(C)(O)[C@H](F)CNC(=O)c1cnc(-c2ccc3cc(C#N)cnn23)cc1N[C@H]1CC[C@H](n2cc(C3CC3)nn2)CC1` [Compound 32, 6-(3-cyanopyrrolo[1,2-b]pyridazin-7-yl)-4-(((1r,4R)-4-(4-cyclopropyl-1H-1,2,3-triazol-1-yl)cyclohexyl)amino)-N-((R)-2-fluoro-3-hydroxy-3-methylbutyl)nicotinamide], the EC50 with TNFα was found to be 63 nM. At IRAK4, this compound registered an IC50 of 1 nM. Regarding `CC(C)(O)[C@H](F)CNC(=O)c1cnc(-c2ccc3cc(C#N)cnn23)cc1N[C@H]1CC[C@H](c2nnc(C3CC3)o2)CC1` [Compound 41, 6-(3-cyanopyrrolo[1,2-b]pyridazin-7-yl)-4-(((1r,4R)-4-(5-cyclopropyl-1,3,4-oxadiazol-2-yl)cyclohexyl)amino)-N-((R)-2-fluoro-3-hydroxy-3-methylbutyl)nicotinamide], the EC50 in the experiment on TNFα was 38 nM. The compound further registered an IC50 against IRAK4 of less than 1 nM. With `CC(C)(O)[C@H](F)CNC(=O)c1cnc(-c2ccc3cc(C#N)cnn23)cc1NC12CCC(c3nnc(C(F)F)o3)(CC1)CC2` [Compound 62, (R)-6-(3-cyanopyrrolo[1,2-b]pyridazin-7-yl)-4-((4-(5-(difluoromethyl)-1,3,4-oxadiazol-2-yl)bicyclo[2.2.2]octan-1-yl)amino)-N-(2-fluoro-3-hydroxy-3-methylbutyl)nicotinamide], the EC50 in the experiment on TNFα came to 19 nM. The same compound displayed an IC50 against IRAK4 of less than 1 nM.

For `CC(C)(O)[C@H](F)CNC(=O)c1cnc(-c2ccc3cc(C#N)cnn23)cc1N[C@H]1CC[C@H](c2cn(C3CC3)nn2)CC1` [Compound 20, 6-(3-cyanopyrrolo[1,2-b]pyridazin-7-yl)-4-(((1r,4R)-4-(1-cyclopropyl-1H-1,2,3-triazol-4-yl)cyclohexyl)amino)-N-((R)-2-fluoro-3-hydroxy-3-methylbutyl)nicotinamide], the concentration for a half-maximal effect (EC50) with TNFα came to 49 nM. The compound further had an IC50 at IRAK4 of 1 nM. For `Cn1nnnc1[C@H]1CC[C@H](Nc2cc(-c3ccc4cc(C#N)cnn34)ncc2C(=O)NC[C@@H](F)C(C)(C)O)CC1` [Compound 16, 6-(3-cyanopyrrolo[1,2-b]pyridazin-7-yl)-N-((R)-2-fluoro-3-hydroxy-3-methylbutyl)-4-(((1r,4R)-4-(1-methyl-1H-tetrazol-5-yl)cyclohexyl)amino)nicotinamide], in the experiment with TNFα, the EC50 turned out to be 26 nM. At IRAK4, the IC50 was less than 1 nM.

On to `CC(C)(O)[C@H](F)CNC(=O)c1cnc(-c2ccc3cc(C#N)cnn23)cc1N[C@@H]1CC[C@@H](c2nnc(C(F)F)o2)OC1` [Compound 63, 6-(3-cyanopyrrolo[1,2-b]pyridazin-7-yl)-4-(((3R,6S)-6-(5-(difluoromethyl)-1,3,4-oxadiazol-2-yl)tetrahydro-2H-pyran-3-yl)amino)-N-((R)-2-fluoro-3-hydroxy-3-methylbutyl)nicotinamide], for which, in the experiment on TNFα, the EC50 stood at 39 nM. Moreover, the IC50 on IRAK4 was less than 1 nM. Regarding `Cc1cnn([C@H]2CC[C@H](Nc3cc(-c4ccc5cc(C#N)cnn45)ncc3C(=O)NC[C@@H](F)C(C)(C)O)CC2)c1` [Compound 26, 6-(3-cyanopyrrolo[1,2-b]pyridazin-7-yl)-N-((R)-2-fluoro-3-hydroxy-3-methylbutyl)-4-(((1r,4R)-4-(4-methyl-1H-pyrazol-1-yl)cyclohexyl)amino)nicotinamide], the EC50 in the experiment with TNFα was 91 nM. Further, the IC50 against IRAK4 is less than 1 nM. Take `Cc1nnc([C@H]2CC[C@H](Nc3cc(-c4ccc5cc(C#N)cnn45)ncc3C(=O)NC[C@@H](F)C(C)(C)O)CC2)s1` [Compound 52, 6-(3-cyanopyrrolo[1,2-b]pyridazin-7-yl)-N-((R)-2-fluoro-3-hydroxy-3-methylbutyl)-4-(((1r,4R)-4-(5-methyl-1,3,4-thiadiazol-2-yl)cyclohexyl)amino)nicotinamide]: in the experiment with TNFα, the 50% effective concentration (EC50) amounted to 50 nM. For the same compound, the IC50 against IRAK4 was 1 nM. The like results for `CC(C)(O)[C@H](F)CNC(=O)c1cnc(-c2ccc3cc(C#N)cnn23)cc1N[C@H]1CC[C@H](c2ncn(C(F)F)n2)CC1` [Compound 22, 6-(3-cyanopyrrolo[1,2-b]pyridazin-7-yl)-4-(((1r,4R)-4-(1-(difluoromethyl)-1H-1,2,4-triazol-3-yl)cyclohexyl)amino)-N-((R)-2-fluoro-3-hydroxy-3-methylbutyl)nicotinamide] were, in that order, 67 nM and 2 nM. Consider `CC(C)(O)[C@H](F)CNC(=O)c1cnc(-c2ccc3cc(C#N)cnn23)cc1N[C@H]1CC[C@H](c2cc[nH]n2)CC1` [Compound 70, 4-(((1r,4R)-4-(1H-pyrazol-3-yl)cyclohexyl)amino)-6-(3-cyanopyrrolo[1,2-b]pyridazin-7-yl)-N-((R)-2-fluoro-3-hydroxy-3-methylbutyl)nicotinamide], for which the IC50 against IRAK4 stood at 0.822 nM. In the case of `CC(C)(O)[C@H](F)CNC(=O)c1cnc(-c2ccc3cc(C#N)cnn23)cc1N[C@H]1CC[C@@H](c2cc[nH]n2)CC1` [Compound 71, 4-(((1s,4S)-4-(1H-pyrazol-3-yl)cyclohexyl)amino)-6-(3-cyanopyrrolo[1,2-b]pyridazin-7-yl)-N-((R)-2-fluoro-3-hydroxy-3-methylbutyl)nicotinamide], at IRAK4, the IC50 was found to be 3.13 nM. As to `CC(C)(O)[C@H](F)CNC(=O)c1cnc(-c2ccc3cc(C#N)cnn23)cc1NC1CCC(c2cnn(CC(F)(F)F)c2)CC1` (stereo partly drawn) [Compound 6, (R)-6-(3-cyanopyrrolo[1,2-b]pyridazin-7-yl)-N-(2-fluoro-3-hydroxy-3-methylbutyl)-4-((4-(1-(2,2,2-trifluoroethyl)-1H-pyrazol-4-yl)cyclohexyl)amino)nicotinamide], the EC50 in the experiment on TNFα came out at 70 nM.
